Assay results taken from US20240033234A1, “THERAPEUTIC COMPOUNDS, FORMULATIONS, AND USE THEREOF” (Tvardi Therapeutics, Inc., priority 2022, published 2024).

Experiment: 3-Month stability data for TTI-101 Batches B, C, D and E stored at 40° C./75% RH
Type: physicochemical
Experimental: Exemplary HPLC conditions: diluent was 0.1% trifluoroacetic acid (TFA) in acetonitrile, Mobile Phase A was 0.05% TFA in water, and Mobile Phase B was 0.05% TFA in acetonitrile, column (Agilent, Eclipse XDB-C18, 3.0×100 mm, particle size 1.8 μm), flow (0.425 mL/min), and detector (280 nm diode array).
Batches B, C, and D were prepared according to Method 5, Method 4, and Method 3, respectively, as described in Example 1. Batch E was prepared analogously using according to Method 1 as described in Example 1.
Samples of TTI-101 (Batches B, C, D, and E) were stored at 40° C./75% RH for 3 months. The batches were individually stored in an low density polyethylene (LDPE) bag enclosed with a Nylon cable tie and then transferred to another LDPE bag and enclosed with a Nylon cable tie. The enclosure was put into a high density polyethylene (HDPE) bottle and closed with a polyethylene-lined polypropylene cap. For Batch B only, another sample was enclosed in a screw-top amber glass bottle and closed with a cap. The samples were stored under the above-identified conditions.

Impurity RRT 0.84, Area % (0 M): NQ (≥0.02% and <0.05%)
Impurity RRT 0.87, Area % (0 M): NQ (≥0.02% and <0.05%)
Impurity RRT 1.06 (Cmp 4), Area % (0 M): NQ (≥0.02% and <0.05%)
Impurities Total, Area % (0 M, listed as Batch C): 0.4 Area %
Impurity RRT 0.99, Area % (0 M, listed as Batch C): 0.06 Area %
Impurity RRT 1.16 (Cmp 6), Area % (0 M, listed as Batch C): 0.31 Area %
Impurities Total, Area % (0 M, listed as Batch D): 0.1 Area %
Impurity RRT 1.16 (Cmp 6), Area % (0 M, listed as Batch D): 0.10 Area %
Impurities Total, Area % (0 M, listed as Batch E): 0.1 Area %
Impurity RRT 1.16 (Cmp 6), Area % (0 M, listed as Batch E): 0.10 Area %
Impurities Total, Area % (1 M, listed as Batch C): 0.1 Area %
Impurity RRT 0.99, Area % (1 M, listed as Batch C): NQ (≥0.02% and <0.05%)
Impurity RRT 1.17 (Cmp 6), Area % (1 M, listed as Batch C): 0.12 Area %
Impurities Total, Area % (1 M, listed as Batch D): 0.1 Area %
Impurity RRT 1.17 (Cmp 6), Area % (1 M, listed as Batch D): 0.09 Area %
Impurities Total, Area % (1 M, listed as Batch E): 0.1 Area %
Impurity RRT 0.99, Area % (1 M, listed as Batch E): NQ (≥0.02% and <0.05%)
Impurity RRT 1.17 (Cmp 6), Area % (1 M, listed as Batch E): 0.09 Area %
Impurity RRT 0.99, Area % (2 M): NQ (≥0.02% and <0.05%)
Impurity RRT 1.06 (Cmp 4), Area % (2 M): NQ (≥0.02% and <0.05%)
Impurities Total, Area % (2 M, listed as Batch C): 0.1 Area %
Impurity RRT 1.17 (Cmp 6), Area % (2 M, listed as Batch C): 0.13 Area %
Impurities Total, Area % (2 M, listed as Batch D): 0.1 Area %
Impurity RRT 1.17 (Cmp 6), Area % (2 M, listed as Batch D): 0.09 Area %
Impurities Total, Area % (2 M, listed as Batch E): 0.1 Area %
Impurity RRT 1.17 (Cmp 6), Area % (2 M, listed as Batch E): 0.09 Area %
Impurity RRT 0.95, Area % (3 M): NQ (≥0.02% and <0.05%)
Impurity RRT 0.98, Area % (3 M): NQ (≥0.02% and <0.05%)
Impurity RRT 1.06 (Cmp 4), Area % (3 M): NQ (≥0.02% and <0.05%)
Impurities Total, Area % (3 M, listed as Batch C): 0.3 Area %
Impurity RRT 1.16 (Cmp 6), Area % (3 M, listed as Batch C): 0.31 Area %
Impurities Total, Area % (3 M, listed as Batch D): 0.1 Area %
Impurity RRT 1.16 (Cmp 6), Area % (3 M, listed as Batch D): 0.11 Area %
Impurities Total, Area % (3 M, listed as Batch E): 0.2 Area %
Impurity RRT 1.16 (Cmp 6), Area % (3 M, listed as Batch E): 0.16 Area %
Purity (%) (T = 0 month (0 M), listed as Batch C): 99.6%
Purity (%) (T = 0 month (0 M), listed as Batch D): 99.9%
Purity (%) (T = 0 month (0 M), listed as Batch E): 99.9%
Purity (%) (T = 1 month (1 M), listed as Batch C): 99.8%
Purity (%) (T = 1 month (1 M), listed as Batch D): 99.9%
Purity (%) (T = 1 month (1 M), listed as Batch E): 99.9%
Purity (%) (T = 2 months (2 M), listed as Batch C): 99.8%
Purity (%) (T = 2 months (2 M), listed as Batch D): 99.9%
Purity (%) (T = 2 months (2 M), listed as Batch E): 99.9%
Purity (%) (T = 3 months (3 M), listed as Batch C): 99.6%
Purity (%) (T = 3 months (3 M), listed as Batch D): 99.9%
Purity (%) (T = 3 months (3 M), listed as Batch E): 99.8%
Compound: COc1ccc(S(=O)(=O)Nc2cc(-c3c(O)ccc4ccccc34)c(O)c3ccccc23)cc1 [TTI-101]
